From patent US20090123445A1, “Surfactin-Containing Compositions for Controlling Scab Disease in Agricultural Products” (priority 2005, published 2009)
Read-outs that look alike come from different tables or passages of the source. Numbered stars: 1 amine (or outer) side, 2 acyl side, 3 side chain; on linkers, the order of the positions; unused ones are H or OH. Bridge positions count the residues as written; N and C are the ends. Square brackets hold non-standard residues; d marks the D form. Peptide text beside a SMILES is read from it. X1 = CC(C)CCCCCCCCC[C@H](CC(=O)[*:1])O[*:2]

Columns and labels:
[1] = tested on: Streptomyces turgidiscabies 91SY-12; assay: Antibacterial activity against potato scab pathogen: surfactin sodium in agar medium; format: cell-based; settings: 30° C., 3 days
Experimental: Each agar medium was smeared with a spore suspension of the potato scab pathogen Streptomyces turgidiscabies 91SY-12 (hereinafter referred to as “the strain 91SY-12”) and incubated at 30° C. for 3 days.

[2] = tested on: Streptomyces turgidiscabies 91SY-12; settings: 10 mg/ml in methanol, 30° C., 11 days
From the text: In the same manner as shown in Example 2, the agar medium was smeared with a spore suspension of the strain 91SY-12, and 4 paper disks (8 mm diameter) were placed thereon.

[3] = tested on: Streptomyces turgidiscabies 91SY-12; settings: 50 μl per paper disk, 30° C., 6 days
plant pathogens = settings: surfactin alone; reported in JP 06-135811 A; cited from earlier work

Row | Compound | inhibition of spore formation ([1]; 10 μg/ml in agar medium) | inhibition of spore formation ([1]; 50 μg/ml in agar medium) | inhibition of spore formation ([1]; 100 μg/ml in agar medium) | inhibition of spore formation ([2]; 10 μl per paper disk) | inhibition of spore formation ([2]; 50 μl per paper disk) | inhibition of spore formation ([2]; 100 μl per paper disk) | inhibitory effect on spore formation ([3]; 0.01 mg/ml in methanol) | inhibitory effect on spore formation ([3]; 0.1 mg/ml in methanol) | inhibitory effect on spore formation ([3]; 1.0 mg/ml in methanol) | antibacterial action against plant pathogens (plant pathogens)
1 | CC(C)CCCCCCCCC[C@@H]1CC(=O)N[C@@H](CCC(=O)O)C(=O)N[C@@H](CC(C)C)C(=O)N[C@H](CC(C)C)C(=O)N[C@@H](C(C)C)C(=O)N[C@@H](CC(=O)O)C(=O)N[C@H](CC(C)C)C(=O)N[C@@H](CC(C)C)C(=O)O1 [surfactin sodium] (EL[dL]VD[dL]L; linker N-C via X1) | tendency to inhibit spore formation | tendency to inhibit spore formation | tendency to inhibit spore formation | – | – | – | – | – | – | –
2 | surfactin | – | – | – | strongly inhibited | strongly inhibited | strongly inhibited | no inhibitory effect on spore formation | inhibited, albeit weakly | inhibited strongly | no antibacterial action
